In patent US20260201335A1, “A Method to Generate Cardiac Pericytes from Human Induced Pluripotent Stem Cells” (The Board of Trustees of the Leland Stanford Junior …, priority 2022, published 2026):

Assays:
iPSC-CPs [1] = assay: Calcium imaging using Fura-2 AM after carbachol; assay type: cell-based, human
From the text: (§1) FIG. 1. […] Key changes of hallmarks in each cluster are highlighted. […] GraphPad Prism 9 was used for statistical analysis. All data are presented as mean±sem.
(§2) Next, we examined the relative cell contraction capacities of iPSC-CPs versus iPSC-SMCs by measuring intracellular calcium transients after carbachol treatment. […] We also tested the pro-angiogenic potentials of iPSC-CPs.

iPSC-SMCs = assay: Calcium imaging using Fura-2 AM after carbachol; assay type: cell-based, human; conditions: iPSC-SMCs after carbachol treatment
From the text: as §1, §2

iPSC-CPs [2] = assay: PrestoBlue viability assay, sunitinib dose-response; assay type: cell-based, human; conditions: 72 hr, sunitinib 0 μM-100 μM
From the text: (§3) FIG. 1. Phenotypic characterization and functional assessment of stepwise differentiated iPSC-cardiac pericytes. A, A schematic showing stage-specific inhibition and activation of morphogens to generate pure epicardial cells (EPI) from human induced pluripotent stem cells (iPSCs). […] MPS, mid-primitive streak; LPM, lateral plate mesoderm; SM, splanchnic mesoderm; ST, septum transversum; PEO, pre-epicardial organ. B, Immunofluorescent images (ZO1 and WT1), flow cytometry (WT1) graphs (n=10 iPSC lines, 5M/5F), and quantitative data showing EPI induction efficiency by stepwise (i) and GiWiGi (ii) protocols. C, Quantitative reverse transcription PCR (RT-qPCR) results showing expression levels of canonical (WT1, TBX18, and TCF21) and mature (ALDH1A2, UPK3B, and ANXA8) markers of EPIs derived by both protocols. D, Single-cell ATAC sequencing (scATAC-seq) of EPIs generated by both GiWiGi (ii) and stepwise (iii) protocols are projected to that of human fetal heart cell clusters (i). […] H, Bright field and immunofluorescent images of iPSC-derived SMCs, cardiac fibroblasts (CFs), and endothelial cells (ECs).

CPs = conditions: mice, cited from earlier work
primary and iPSC-CPs = assay: Thalidomide rescue of sunitinib-induced CP death (cell morphology); assay type: cell-based, human; conditions: sunitinib (5 μM)/thalidomide (1 μM), 72 hr
From the text: as §3

iPSC-CPs [3] = assay: Gene clustering / gene ontology analysis of treated iPSC-CPs (RNA-seq); assay type: cell-based, human; conditions: sunitinib (5 μM)/thalidomide (1 μM), 72 hr
stepwise EPIs = assay: Differentiation of stepwise EPIs to iPSC-CPs with exogenous PDGF-BB (flow cytometry); assay type: cell-based, human; conditions: exogenous PDGF-BB in pericyte medium
From the text: as §1
Next, we differentiated stepwise EPIs in a commercial pericyte medium and observed that it took at least 12 days to generate iPSC-CPs (FIG. 1E) with low efficiency (FIG. 1F).
Day 11. EPI to Cardiac pericyte, CP. Aspects of the disclosure relate to producing cardiac pericytes through contacting a population of epicardial cells with a cardiac pericyte composition. As described herein, cardiac pericyte induction compositions may vary and generally comprise effective amounts of a PDGF pathway activator in a commercial pericyte medium (ScienCell cat #1201). An exemplary CP induction medium comprises 10 ng/ml PDGF-BB in pericyte medium.

Molecule: C[N+](C)(C)CCOC(N)=O [carbachol]
- calcium amplitude, iPSC-CPs versus iPSC-SMCs (iPSC-CPs [1]; after carbachol treatment): much smaller calcium amplitude
- contraction pattern (intracellular calcium transients) (iPSC-CPs [1]; iPSC-CPs after carbachol treatment): stereotypical contraction pattern
- contraction pattern (intracellular calcium transients) (iPSC-SMCs): stereotypical contraction pattern

Molecule: CCN(CC)CCNC(=O)c1c(C)[nH]c(/C=C2\C(=O)Nc3ccc(F)cc32)c1C [sunitinib]
- sunitinib-induced cell death, sensitivity of iPSC-CPs versus iPSC-CMs (iPSC-CPs [2]): iPSC-CPs were more sensitive than iPSC-CMs
- coronary microvascular abnormalities and cardiac dysfunction, primary target cells (CPs; previous study): CPs were the primary targets

Molecule: O=C1CCC(N2C(=O)c3ccccc3C2=O)C(=O)N1 (stereo not drawn) [thalidomide]
- rescue from sunitinib-induced CP loss and cardiac dysfunction (CPs): can rescue mice from sunitinib-induced CP loss and cardiac dysfunction
- rescue of CP death (primary and iPSC-CPs): profoundly rescued CP death
- genes associated with cell cycle, pericyte function, and DNA damage (iPSC-CPs [3]): restored genes associated with cell cycle, pericyte function, and DNA damage to a baseline level

B1: PDGF-BB: platelet-derived growth factor ligand predominantly secreted by ECs; PDGF pathway activator (protein, UniProt P01127 82-190, looked up)
Platelet-derived growth …: SLGSLTIAEPAMIAECKTRTEVFEISRRLIDRTNANFLVWPPCVEVQRCSGCCNNRNVQCRPTQVQLRPVQVRKIEIVRKKPIFKKATVTLEDHLACKCETVAAARPVT
modifications: homodimer
- generation of iPSC-CPs (PDGFRβ+/CD146+/NG2+/CD13+) (stepwise EPIs): successfully generated pure iPSC-CPs
